Data taken from article PMC8453745, “Human Mass Balance and Metabolite Profiling of [^14C]‐Pamiparib, a Poly (ADP‐Ribose) Polymerase Inhibitor, in Patients With Advanced Cancer” (Clinical Pharmacology in Drug Development, 2021).
Values joined by “and” are separate entries in the source; they are usually repeats but may differ in a detail not shown here. Identical values can stand only once. Like-named read-outs stand apart in the source and are kept apart here.

What was measured:
PARP1 = test system: PARP1; design: method as in PMID 33264017; details: read-out: PARP1 inhibition IC50; cited from earlier work
[1] = design: method as in PMID 32652442; details: after oral administration in mice; cited from earlier work
[2] = safety and tolerability in patients; type: in vivo, human
Protocol: Safety and tolerability were evaluated throughout the study, and AEs were assessed from the time of obtaining informed consent to discharge from the study and follow‐up visit or early withdrawal. Scheduled safety assessments of 12‐lead electrocardiogram, physical examination, vital signs, and clinical laboratory investigations (clinical chemistry, hematology, serology, and urinalysis) occurred before administration of the study drug and at discharge and follow‐up visit.

[3] = plasma pamiparib pharmacokinetics in patients (LC‐MS/MS); type: in vivo, human; details: for Cmax / half-life: plasma, po
From the text: Part 1 of the study included a screening phase of up to 28 days prior to drug administration to assess eligibility. Patients were admitted to the clinical research unit (CRU) at Royal Liverpool University Hospital (Liverpool, UK)/Clatterbridge Cancer Centre NHS Foundation Trust (Bebington, Wirral, UK) on day −1 and received a single dose of 60‐mg/100 μCi [^14C]‐pamiparib orally the morning of day 1. Patients remained in the CRU until completion of assessments on day 7, when discharge criteria of ≈90% of the radioactive dose being recovered or <1% of the radioactive dose being recovered in urine and feces for 2 consecutive 24‐hour collection intervals were met. If discharge criteria were not met by day 7, patients collected 24‐hour excreta samples up to day 14 on an outpatient basis. Part 2 of the study, evaluating the safety/tolerability and antitumor activity of 60 mg twice‐daily pamiparib in patients with advanced and/or metastatic solid tumors, is ongoing and is not included in this report.
Patients fasted overnight and 2 hours after oral administration of a single 60‐mg dose containing ≈100 μCi (3.7‐3.9 MBq) of [^14C]‐pamiparib with ≈240 mL of room‐temperature water or juice (orange or grape). The residual radioactivity present in each vial postdose was corrected from the dose. The radioactive dose of 100 μCi of [^14C]‐pamiparib provided minimum risk to patients according to the dosimetry calculation from a quantitative whole‐body autoradiography study in male and female Long Evans rats; the dose also provided sufficient signal for total radioactivity counting and quantitative radioprofiling in blood, plasma, and excreta (data on file). Patients were not permitted to lie in the supine position for 2 hours after drug administration, except if required because of an adverse event (AE) and/or study procedure.
Total radioactivity was analyzed at Covance Laboratories (Harrogate, North Yorkshire, UK), and metabolite profiling was conducted at Covance Laboratories (Madison, Wisconsin). Determination of pamiparib concentrations in plasma and total radioactivity in plasma and whole blood was performed predose and 0.25, 0.5, 1, 1.5, 2, 2.5, 3, 6, 12, 24, 48, 72, 96, 120, and 144 hours postdose. Pamiparib concentrations in plasma and urine were determined at Covance Laboratories (Salt Lake City, Utah) with validated liquid chromatography‐tandem mass spectrometry (LC‐MS/MS) methods.
An aliquot of human plasma (25 μL) containing dipotassium ethylenediaminetetraacetic acid as anticoagulant or urine (25 μL) was added with the internal standard (20.0 μL of 400 ng/mL BGB‐326) in water:ACN (50:50 v/v) followed by the addition of water:ACN (50:50 v/v, 20.0 μL). The plasma samples were centrifugated and vortexed followed by the addition of 200 μL of 5% NH4OH and 100 μL of water. After centrifugation, the supernatant (50 μL) was loaded to Biotage Isolute supported liquid extraction plate (Biotage, Holliston, Massachusetts) and eluted with methyl tert‐butyl ether (700 μL). The eluted samples were dried down at 45°C in TurboVap for 30 minutes and reconstituted in 400 μL of water:MeOH (80:20 v/v), followed by LC‐MS/MS analysis. The urine samples were centrifuged and vortexed followed by the addition of 200 μL of ACN. After centrifugation, 100 μL of the samples was transferred to a plate followed by the addition of 300 μL of water. The samples were centrifugated again before LC‐MS/MS analysis. The LC‐MS/MS instrumentation was the same for plasma and urine analysis including a LEAP autosampler (LEAP Technologies, Chapel Hill, North Carolina), a Shimadzu SCL‐10A controller with LC‐10AD pump (Shimadzu, Columbia, Maryland), and a Sciex API 5000 mass spectrometer (Sciex, Framingham, Massachusetts) equipped with a XBridge Phenyl column (2.1 × 50 mm, 5 μm; Waters, Pleasanton, California). The mobile phase A is 10 mM ammonium formate in water, and mobile phase B is MeOH:ACN (50:50 v/v). […]

[4] = single oral 60 mg/100 μCi, n = 4

C[C@]12CCCN1CC1=NNC(=O)c3cc(F)cc4[nH]c2c1c34 [Pamiparib]
IC50 (PARP1): 1.3 nM
brain penetrance [1]: brain penetrance
patients with TEAEs ([2]; 4 patients): 100%
severity of all TEAEs ([2]; 4 patients): mild (CTCAE grade 1)
TEAEs considered related to [^14C]‐pamiparib, percent of events ([2]; in 2 patients): 31.3%
TEAEs considered unrelated to [^14C]‐pamiparib, percent of events ([2]; in 4 patients): 68.8%
TEAEs reported (events) ([2]; in 4 patients): 16
tolerability ([2]; single dose 60 mg [^14C]‐pamiparib, 4 patients): well tolerated
deaths or serious AEs ([2]; single dose 60 mg, 4 patients): no deaths or serious AEs
geometric coefficient of variation of parent AUCs among 4 subjects [3]: < 22%
AUC ([3]; human, oral, 60 mg, as printed in discussion, read-out: AUC0‐t, geometric mean (LC‐MS/MS)): 29200 ng·h/mL
Cmax ([3]; human, 60 mg, single oral 60 mg/100 μCi, n = 4, read-out: Cmax, arithmetic mean (SD)): 2210 ng/mL
Cmax ([3]; human, 60 mg, single oral 60 mg/100 μCi, n = 4, read-out: Cmax, geometric mean (CV%)): 2190 ng/mL
half-life ([3]; human, 60 mg, single oral 60 mg/100 μCi, n = 4, read-out: t1/2, arithmetic mean (SD) (converted)): 1750 min
half-life ([3]; human, 60 mg, single oral 60 mg/100 μCi, n = 4, read-out: t1/2, geometric mean (CV%) (converted)): 1720 min
Tmax ([3]; human, single oral 60 mg/100 μCi, n = 4, read-out: tmax, median (min, max)): 2 h
CL/F, arithmetic mean (SD) [3, 4]: 2.25 (0.55) L/h
CL/F, geometric mean (CV%) [3, 4]: 2.21 (23.2) L/h
CL/F, geometric mean (CV%) ([3]; single oral 60 mg/100 μCi, n = 4, listed as pamiparib): ≈ 2.2 L/h and 2.21 L/h
